According to US20260015358A1, “BICYCLIC DERIVATIVES, COMPOSITIONS AND USES THEREOF” (Danatlas Pharmaceuticals Co., Ltd., priority 2023, published 2026):
pIC50: −log10 of the molar value.

Key:
[1] = molecular target: T1, WRN [UniPro: Q14191 (WRN_HUMAN), N500-C946] (Homo sapiens (Human), UniProt Q14191); assay: WRN ATPase assay (ADP-Glo); type: biochemical; details: WRN enzymatic activity assay
Protocol: WRN ATPase assay was initiated to evaluate potential inhibitory effect of compounds for ATP hydrolysis activity of WRN protein. WRN [UniPro: Q14191 (WRN_HUMAN), N500-C946] was expressed and purified in insect system and stored at −80° C. in aliquots. […] ADP quantity produced from ATP hydrolysis by WRN catalytic reaction was measured using a commercially available ADP-Glo Assay (ADP-Glo™ Kinase Assay from Promega, 10000 assays, #V9102). […] Compounds dissolved in DMSO (Sigma, D8418) were plated into a 96-well intermediate plate (BioFil, VWP-032-096) for 3-fold serial titration for 10 points using DMSO, and well-to-well transfer the titrated compounds into another 96-well intermediate plate including assay buffer in advance. Shake the 96-well intermediate plate at 600 rpm for 10 min to fully mix. Specifically, a 4× working mixture of WRN was diluted to a concentration of 8 nM in assay buffer. […] After centrifuging at 1000 rpm and shaking at 500 rpm, the assay plate was pre-incubated for 30 min. Then, 5 μL 2×FORKF DNA and ATP working mixture was dispensed into assay plate. Plate was sealed, centrifuged and incubated for an additional 40 min. at 37° C. The reaction was stopped with the addition of 10 μL of the first ADP-Glo reagent and incubated for 40 min. to remove the excess amount of ATP. Afterwards, 20 μL of ATP detection reagent was added and incubated for 30 min. before reading. Luminescence output was recorded using BMG CLARIO star plus reader. Each concentration of compound was tested in duplicates in the assay plate. Average luminescence signal of high control (Wells with 1% DMSO) was calculated as High Control (HC). Average luminescence signal of low control (Wells with no WRN protein) was calculated as Low control (LC).
IC50 values were determined by fitting the data to the standard 4 parameters with Hill Slope using GraphPad Prism software.

[2] = molecular target: T1, WRN [UniPro: Q14191 (WRN_HUMAN), N500-C946]; assay: WRN unwinding assay (FORKF DNA, fluorescence); type: biochemical; details: Table 14

T1 sequence (Q14191 500-946): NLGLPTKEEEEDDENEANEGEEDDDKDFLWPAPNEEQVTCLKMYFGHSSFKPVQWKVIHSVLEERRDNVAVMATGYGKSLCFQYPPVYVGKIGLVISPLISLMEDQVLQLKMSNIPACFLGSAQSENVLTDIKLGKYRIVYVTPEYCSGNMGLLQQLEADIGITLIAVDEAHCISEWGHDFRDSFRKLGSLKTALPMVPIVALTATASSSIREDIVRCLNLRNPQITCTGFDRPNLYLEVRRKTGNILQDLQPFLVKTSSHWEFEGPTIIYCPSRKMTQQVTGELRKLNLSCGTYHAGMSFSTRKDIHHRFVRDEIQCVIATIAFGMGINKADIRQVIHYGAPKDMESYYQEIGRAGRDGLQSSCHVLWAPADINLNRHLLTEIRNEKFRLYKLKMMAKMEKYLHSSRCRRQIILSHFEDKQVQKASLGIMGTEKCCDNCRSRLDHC

Structure (SMILES) | pIC50 [1] | pIC50 [2]
CCc1c(N2CCN(C(=O)c3cnc4[nH]ccc4c3O)CC2)c(=O)n2nc(C3=CCOCC3)nc2n1CC(=O)Nc1ccc(C(F)(F)F)cc1Cl [Example 42, N-(2-Chloro-4-(trifluoromethyl)phenyl)-2-(2-(3,6-dihydro-2H-pyran-4-yl)-5-ethyl-6-(4-(4-hydroxy-1H-pyrrolo[2,3-b]pyridine-5-carbonyl)piperazin-1-yl)-7-oxo-[1,2,4]triazolo[1,5-a]pyrimidin-4(7H)-yl)acetamide] | > 7.00 | > 7.00
CCc1c(N2CCN(C(=O)CNC(=O)c3c[nH][nH]c3=O)CC2)c(=O)n2nc(C3=CCOCC3)nc2n1CC(=O)Nc1ccc(C(F)(F)F)cc1Cl [Example 108, N-(2-(4-(4-(2-((2-Chloro-4-(trifluoromethyl)phenyl)amino)-2-oxoethyl)-2-(3,6-dihydro-2H-pyran-4-yl)-5-ethyl-7-oxo-4,7-dihydro-[1,2,4]triazolo[1,5-a]pyrimidin-6-yl)piperazin-1-yl)-2-oxoethyl)-3-oxo-2,3-dihydro-1H-pyrazole-4-carboxamide] | > 7.00 | > 7.00
CCc1c(N2CCN(C(=O)C(=O)Nc3nnc(Cl)s3)CC2)c(=O)n2nc(C3=CCOCC3)nc2n1CC(=O)Nc1ccc(C(F)(F)F)cc1Cl [Example 351, N-(5-Chloro-1,3,4-thiadiazol-2-yl)-2-(4-(4-(2-((2-chloro-4-(trifluoromethyl)phenyl)amino)-2-oxoethyl)-2-(3,6-dihydro-2H-pyran-4-yl)-5-ethyl-7-oxo-4,7-dihydro-[1,2,4]triazolo[1,5-a]pyrimidin-6-yl)piperazin-1-yl)-2-oxoacetamide] | > 7.00 | > 7.00
CCc1c(N2CCN(C(=O)CNC(=O)c3ccccc3)CC2)c(=O)n2nc(C3=CCOCC3)nc2n1CC(=O)N(C)c1ccc(C(F)(F)F)cc1Cl [Example 143, N-(2-(4-(4-(2-((2-Chloro-4-(trifluoromethyl)phenyl)(methyl)amino)-2-oxoethyl)-2-(3,6-dihydro-2H-pyran-4-yl)-5-ethyl-7-oxo-4,7-dihydro-[1,2,4]triazolo[1,5-a]pyrimidin-6-yl)piperazin-1-yl)-2-oxoethyl)benzamide] | 6.00 to 7.00 | < 6.00
CCc1c(N2CCN(C(=O)CNc3ncnc4[nH]ccc34)CC2)c(=O)n2nc(C3=CCOCC3)nc2n1CC(=O)Nc1ccc(C(F)(F)F)cc1Cl [Example 363, 2-(6-(4-((7H-Pyrrolo[2,3-d]pyrimidin-4-yl)glycyl)piperazin-1-yl)-2-(3,6-dihydro-2H-pyran-4-yl)-5-ethyl-7-oxo-[1,2,4]triazolo[1,5-a]pyrimidin-4(7H)-yl)-N-(2-chloro-4-(trifluoromethyl)phenyl)acetamide] | < 6.00 | < 6.00
CCc1c(N2CCN(C(=O)CNC(=O)c3cnon3)CC2)c(=O)n2nc(C3=CCOCC3)nc2n1CC(=O)Nc1ccc(C(F)(F)F)cc1Cl [Example 384, N-(2-(4-(4-(2-((2-Chloro-4-(trifluoromethyl)phenyl)amino)-2-oxoethyl)-2-(3,6-dihydro-2H-pyran-4-yl)-5-ethyl-7-oxo-4,7-dihydro-[1,2,4]triazolo[1,5-a]pyrimidin-6-yl)piperazin-1-yl)-2-oxoethyl)-1,2,5-oxadiazole-3-carboxamide] | > 7.00 | > 7.00
CCc1c(N2CCN(C(=O)CNC(=O)c3ccncc3O)CC2)c(=O)n2nc(C3=CCOCC3)nc2n1CC(=O)Nc1ccc(C(F)(F)F)cc1Cl [Example 381, N-(2-(4-(4-(2-((2-Chloro-4-(trifluoromethyl)phenyl)amino)-2-oxoethyl)-2-(3,6-dihydro-2H-pyran-4-yl)-5-ethyl-7-oxo-4,7-dihydro-[1,2,4]triazolo[1,5-a]pyrimidin-6-yl)piperazin-1-yl)-2-oxoethyl)-3-hydroxyisonicotinamide] | > 7.00 | > 7.00
CCc1c(N2CCN(C(=O)c3n[nH]cc(C)c3=O)CC2)c(=O)n2nc(C3=CCOCC3)nc2n1CC(=O)Nc1ccc(C(F)(F)F)cc1Cl [Example 76, N-(2-Chloro-4-(trifluoromethyl)phenyl)-2-(2-(3,6-dihydro-2H-pyran-4-yl)-5-ethyl-6-(4-(5-methyl-4-oxo-1,4-dihydropyridazine-3-carbonyl)piperazin-1-yl)-7-oxo-[1,2,4]triazolo[1,5-a]pyrimidin-4(7H)-yl)acetamide] | 6.00 to 7.00 | > 7.00
CCc1c(N2CCN(C(=O)CNC(=O)c3cc(O)ccc3F)CC2)c(=O)n2nc(C3=CCOCC3)nc2n1CC(=O)Nc1ccc(C(F)(F)F)cc1Cl [Example 290, N-(2-(4-(4-(2-((2-Chloro-4-(trifluoromethyl)phenyl)amino)-2-oxoethyl)-2-(3,6-dihydro-2H-pyran-4-yl)-5-ethyl-7-oxo-4,7-dihydro-[1,2,4]triazolo[1,5-a]pyrimidin-6-yl)piperazin-1-yl)-2-oxoethyl)-2-fluoro-5-hydroxybenzamide] | > 7.00 | > 7.00
CCC(=O)N1CCN(c2c(CC)n(CC(=O)Nc3ccc(C(F)(F)F)cc3Cl)c3nc(C4=CCOCC4)nn3c2=O)CC1 [Example 27, N-(2-Chloro-4-(trifluoromethyl)phenyl)-2-(2-(3,6-dihydro-2H-pyran-4-yl)-5-ethyl-7-oxo-6-(4-propionylpiperazin-1-yl)-[1,2,4]triazolo[1,5-a]pyrimidin-4(7H)-yl)acetamide] | 6.00 to 7.00 | > 7.00
CCc1c(N2CCN(C(=O)c3cc4sccc4[nH]c3=O)CC2)c(=O)n2nc(C3=CCOCC3)nc2n1CC(=O)Nc1ccc(C(F)(F)F)cc1Cl [Example 197, N-(2-Chloro-4-(trifluoromethyl)phenyl)-2-(2-(3,6-dihydro-2H-pyran-4-yl)-5-ethyl-7-oxo-6-(4-(5-oxo-4,5-dihydrothieno[3,2-b]pyridine-6-carbonyl)piperazin-1-yl)-[1,2,4]triazolo[1,5-a]pyrimidin-4(7H)-yl)acetamide] | > 7.00 | > 7.00
CCc1c(N2CCN(C(=O)CNC(=O)c3ccccc3F)CC2)c(=O)n2nc(N3CCOCC3)nc2n1CC(=O)Nc1ccc(C(F)(F)F)cc1F [Example 254, N-(2-(4-(5-Ethyl-4-(2-((2-fluoro-4-(trifluoromethyl)phenyl)amino)-2-oxoethyl)-2-morpholino-7-oxo-4,7-dihydro-[1,2,4]triazolo[1,5-a]pyrimidin-6-yl)piperazin-1-yl)-2-oxoethyl)-2-fluorobenzamide] | > 7.00 | > 7.00
CCc1c(N2CCN(C(=O)C(=O)Nc3nccs3)CC2)c(=O)n2nc(N3CCn4cncc4C3)nc2n1CC(=O)Nc1ccc(C(F)(F)F)cc1F [Example 261, 2-(4-(2-(5,6-Dihydroimidazo[1,5-a]pyrazin-7 (8H)-yl)-5-ethyl-4-(2-((2-fluoro-4-(trifluoromethyl)phenyl)amino)-2-oxoethyl)-7-oxo-4,7-dihydro-[1,2,4]triazolo[1,5-a]pyrimidin-6-yl)piperazin-1-yl)-2-oxo-N-(thiazol-2-yl)acetamide] | > 7.00 | > 7.00
CCc1c(N2CCN(C(=O)c3c(O)nn4c(Cl)cccc34)CC2)c(=O)n2nc(C3=CCOCC3)nc2n1CC(=O)Nc1ccc(C(F)(F)F)cc1Cl [Example 198, 2-(6-(4-(7-Chloro-2-hydroxypyrazolo[1,5-a]pyridine-3-carbonyl)piperazin-1-yl)-2-(3,6-dihydro-2H-pyran-4-yl)-5-ethyl-7-oxo-[1,2,4]triazolo[1,5-a]pyrimidin-4(7H)-yl)-N-(2-chloro-4-(trifluoromethyl)phenyl)acetamide] | > 7.00 | > 7.00
